Assay results taken from ChEMBL document CHEMBL1201862, “PubChem BioAssay data set” (2004).
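Tested at 5 concentrations; 48 h exposure; 96-well plates; endpoints linearly interpolated, else capped at highest concentration. GI50 = concentration required for 50% inhibition of growth.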 The source made the active and inactive calls. Rule as the data show it: active = GI50 up to about 1.1 µM and inactive = higher.

Columns and labels:
Test in all cases: DTP human tumour cell line panel, 48 h
SW-620 = system: SW-620
NCI-H226 = system: NCI-H226
NCI-H23 = system: NCI-H23
OVCAR-3 = system: OVCAR-3
RPMI-8226 = system: RPMI-8226
HCC 2998 = system: HCC 2998
SK-MEL-2 = system: SK-MEL-2
NCI-H460 = system: NCI-H460
SK-OV-3 = system: SK-OV-3
HCT-116 = system: HCT-116
MCF7 = system: MCF7
KM12 = system: KM12
U-251 = system: U-251
SNB-19 = system: SNB-19
NCI/ADR-RES = system: NCI/ADR-RES
ACHN = system: ACHN
SF-268 = system: SF-268
MOLT-4 = system: MOLT-4
CAKI-1 = system: CAKI-1

## CC12CCC3C(CCC4=CC(O)CCC43C=O)C1(O)CCC2c1ccc(=O)oc1 (stereo not given)
SW-620
  GI50: 0.05 µM (active)
NCI-H226
  GI50: 0.0303 µM (active)
NCI-H23
  GI50: 0.00226 µM (active)
OVCAR-3
  GI50: 0.00368 µM (active)
RPMI-8226
  GI50: 0.05 µM (active)
HCC 2998
  GI50: 0.021 µM (active)
SK-MEL-2
  GI50: 0.0116 µM (active)
NCI-H460
  GI50: 0.00182 µM (active)
SK-OV-3
  GI50: 0.0113 µM (active)
HCT-116
  GI50: 0.05 µM (active)
MCF7
  GI50: 0.05 µM (active)
KM12
  GI50: 0.0129 µM (active)
U-251
  GI50: 0.00556 µM (active)
SNB-19
  GI50: 0.00622 µM (active)
NCI/ADR-RES
  GI50: 0.0253 µM (active)

## CC(C)=C[C@@H]1C[C@H](C)[C@H]2CC[C@H](C)[C@H]3C(=O)C(O)=C(C)C(=O)[C@]123
SW-620
  GI50: > 100 µM (inactive)
NCI-H226
  GI50: 87.3 µM (inactive)
NCI-H23
  GI50: > 100 µM (inactive)
ACHN
  GI50: > 100 µM (inactive)
OVCAR-3
  GI50: > 100 µM (inactive)
RPMI-8226
  GI50: > 100 µM (inactive)
SF-268
  GI50: > 100 µM (inactive)
MOLT-4
  GI50: > 100 µM (inactive)
HCC 2998
  GI50: > 100 µM (inactive)
NCI-H460
  GI50: > 100 µM (inactive)
SK-OV-3
  GI50: > 100 µM (inactive)
HCT-116
  GI50: 88.5 µM (inactive)
MCF7
  GI50: > 100 µM (inactive)
KM12
  GI50: > 100 µM (inactive)
U-251
  GI50: > 100 µM (inactive)
SNB-19
  GI50: > 100 µM (inactive)
CAKI-1
  GI50: > 100 µM (inactive)
NCI/ADR-RES
  GI50: > 100 µM (inactive)

## CCNCCCCNCC
SW-620
  GI50: > 3750 µM (inactive)
NCI-H226
  GI50: 2420 µM (inactive)
NCI-H23
  GI50: > 3750 µM (inactive)
OVCAR-3
  GI50: > 3750 µM (inactive)
RPMI-8226
  GI50: > 3750 µM (inactive)
SF-268
  GI50: > 2990 µM (inactive)
MOLT-4
  GI50: 1390 µM (inactive)
HCC 2998
  GI50: > 2670 µM (inactive)
SK-MEL-2
  GI50: > 3750 µM (inactive)
NCI-H460
  GI50: 525 µM (inactive)
SK-OV-3
  GI50: > 3750 µM (inactive)
HCT-116
  GI50: > 2480 µM (inactive)
MCF7
  GI50: > 3750 µM (inactive)
KM12
  GI50: > 3750 µM (inactive)
U-251
  GI50: > 3230 µM (inactive)
SNB-19
  GI50: > 3750 µM (inactive)
CAKI-1
  GI50: > 3750 µM (inactive)
NCI/ADR-RES
  GI50: > 3750 µM (inactive)

## C[C@H]1COC(c2ccccn2)=N1
SW-620
  GI50: > 100 µM (inactive)
NCI-H226
  GI50: > 100 µM (inactive)
NCI-H23
  GI50: > 100 µM (inactive)
OVCAR-3
  GI50: > 100 µM (inactive)
RPMI-8226
  GI50: > 100 µM (inactive)
SF-268
  GI50: > 100 µM (inactive)
MOLT-4
  GI50: > 100 µM (inactive)
HCC 2998
  GI50: > 100 µM (inactive)
SK-MEL-2
  GI50: > 100 µM (inactive)
NCI-H460
  GI50: > 100 µM (inactive)
SK-OV-3
  GI50: > 100 µM (inactive)
HCT-116
  GI50: > 100 µM (inactive)
MCF7
  GI50: > 100 µM (inactive)
KM12
  GI50: > 100 µM (inactive)
U-251
  GI50: > 100 µM (inactive)
SNB-19
  GI50: > 100 µM (inactive)
CAKI-1
  GI50: > 100 µM (inactive)
NCI/ADR-RES
  GI50: > 100 µM (inactive)

## [N-]=[N+]=CC(=O)CCC(NC(=O)C(CCC(=O)C=[N+]=[N-])NC(=O)CCC(N)C(=O)O)C(=O)O (stereo not given)
SW-620
  GI50: > 100 µM (inactive)
NCI-H226
  GI50: > 100 µM (inactive)
NCI-H23
  GI50: > 100 µM (inactive)
OVCAR-3
  GI50: > 100 µM (inactive)
RPMI-8226
  GI50: > 100 µM (inactive)
SF-268
  GI50: > 100 µM (inactive)
MOLT-4
  GI50: > 100 µM (inactive)
HCC 2998
  GI50: > 100 µM (inactive)
SK-MEL-2
  GI50: > 100 µM (inactive)
NCI-H460
  GI50: > 100 µM (inactive)
SK-OV-3
  GI50: > 100 µM (inactive)
HCT-116
  GI50: > 100 µM (inactive)
MCF7
  GI50: > 100 µM (inactive)
KM12
  GI50: 31.6 µM (inactive)
U-251
  GI50: > 100 µM (inactive)
SNB-19
  GI50: > 100 µM (inactive)
CAKI-1
  GI50: > 100 µM (inactive)
NCI/ADR-RES
  GI50: > 100 µM (inactive)

## CCC1C(=O)C[C@H]2[C@@H]3C(O)CC4=CC(=O)CC[C@]4(C)[C@H]3CC[C@]12C (stereo not given in full)
SW-620
  GI50: > 50 µM (inactive)
NCI-H23
  GI50: > 50 µM (inactive)
ACHN
  GI50: > 50 µM (inactive)
OVCAR-3
  GI50: > 50 µM (inactive)
RPMI-8226
  GI50: > 50 µM (inactive)
SF-268
  GI50: > 50 µM (inactive)
MOLT-4
  GI50: > 50 µM (inactive)
HCC 2998
  GI50: > 50 µM (inactive)
SK-MEL-2
  GI50: > 50 µM (inactive)
NCI-H460
  GI50: > 50 µM (inactive)
SK-OV-3
  GI50: > 50 µM (inactive)
HCT-116
  GI50: > 50 µM (inactive)
MCF7
  GI50: > 50 µM (inactive)
KM12
  GI50: > 50 µM (inactive)
U-251
  GI50: > 50 µM (inactive)
SNB-19
  GI50: > 50 µM (inactive)
CAKI-1
  GI50: > 50 µM (inactive)
NCI/ADR-RES
  GI50: > 50 µM (inactive)
